target: Serine/threonine-protein kinase 26 (Homo sapiens) (UniProt Q9P289)
Sequence (Q9P289 2-416 limits assumed): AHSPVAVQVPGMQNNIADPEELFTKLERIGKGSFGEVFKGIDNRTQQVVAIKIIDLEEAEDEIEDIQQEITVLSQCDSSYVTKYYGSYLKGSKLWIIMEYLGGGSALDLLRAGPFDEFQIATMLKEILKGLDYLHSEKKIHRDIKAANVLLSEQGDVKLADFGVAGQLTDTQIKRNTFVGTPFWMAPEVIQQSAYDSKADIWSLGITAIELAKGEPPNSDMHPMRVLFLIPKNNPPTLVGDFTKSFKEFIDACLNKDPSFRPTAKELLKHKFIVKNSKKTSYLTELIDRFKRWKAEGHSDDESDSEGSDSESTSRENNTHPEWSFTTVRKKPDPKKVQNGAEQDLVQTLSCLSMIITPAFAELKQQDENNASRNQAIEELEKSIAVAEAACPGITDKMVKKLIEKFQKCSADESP

SMILES | ΔTm
Oc1cc(O)cc(/C=C/c2ccc(O)c(O)c2)c1 [PICEATANNOL] | 0.9 °C
COc1ccc2c(c[n+](C)c3c4cc5c(cc4ccc23)OCO5)c1OC [CHELERYTHRINE CHLORIDE] | -1 °C
N#CC(C#N)=Cc1ccc(O)c(O)c1 [TYRPHOSTIN 23] | 0.3 °C

target: T1, Mitogen-activated protein kinase kinase kinase 5 (Homo sapiens) (UniProt Q99683)
T1 sequence (whole entry): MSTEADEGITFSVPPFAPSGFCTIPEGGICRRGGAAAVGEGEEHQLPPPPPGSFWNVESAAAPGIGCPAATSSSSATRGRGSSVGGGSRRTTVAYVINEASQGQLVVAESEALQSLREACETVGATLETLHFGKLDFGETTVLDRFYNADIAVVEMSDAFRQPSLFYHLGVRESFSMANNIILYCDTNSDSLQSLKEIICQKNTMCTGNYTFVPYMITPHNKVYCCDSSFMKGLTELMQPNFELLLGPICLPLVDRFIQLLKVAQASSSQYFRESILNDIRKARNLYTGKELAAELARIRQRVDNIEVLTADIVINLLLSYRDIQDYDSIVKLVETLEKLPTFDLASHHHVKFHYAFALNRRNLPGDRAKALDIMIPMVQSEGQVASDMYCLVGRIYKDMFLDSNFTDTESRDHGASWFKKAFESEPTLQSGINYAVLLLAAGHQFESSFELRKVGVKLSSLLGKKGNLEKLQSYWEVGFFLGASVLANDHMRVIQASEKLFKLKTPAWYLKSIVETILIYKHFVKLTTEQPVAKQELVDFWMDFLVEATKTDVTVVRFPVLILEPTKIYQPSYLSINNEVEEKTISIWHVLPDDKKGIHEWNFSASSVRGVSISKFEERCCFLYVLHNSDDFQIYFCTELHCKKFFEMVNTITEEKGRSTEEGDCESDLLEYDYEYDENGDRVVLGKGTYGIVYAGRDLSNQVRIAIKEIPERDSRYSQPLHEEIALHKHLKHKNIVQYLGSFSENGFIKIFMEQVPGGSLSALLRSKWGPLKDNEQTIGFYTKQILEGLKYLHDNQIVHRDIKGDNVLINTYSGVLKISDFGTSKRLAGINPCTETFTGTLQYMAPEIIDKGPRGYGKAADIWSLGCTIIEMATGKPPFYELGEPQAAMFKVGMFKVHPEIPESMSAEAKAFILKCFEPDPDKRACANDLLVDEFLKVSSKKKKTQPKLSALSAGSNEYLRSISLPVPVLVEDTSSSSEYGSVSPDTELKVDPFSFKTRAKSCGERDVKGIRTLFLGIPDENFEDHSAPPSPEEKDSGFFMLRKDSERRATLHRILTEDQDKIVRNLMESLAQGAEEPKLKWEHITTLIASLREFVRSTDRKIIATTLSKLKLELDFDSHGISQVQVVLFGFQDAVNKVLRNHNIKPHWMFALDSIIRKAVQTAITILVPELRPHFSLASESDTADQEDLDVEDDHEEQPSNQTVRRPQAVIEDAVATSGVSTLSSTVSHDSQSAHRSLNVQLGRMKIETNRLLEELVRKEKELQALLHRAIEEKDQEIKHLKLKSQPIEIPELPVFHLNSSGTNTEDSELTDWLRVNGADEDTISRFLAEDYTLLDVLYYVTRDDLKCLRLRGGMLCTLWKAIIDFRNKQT

SMILES | ΔTm
Oc1cc(O)cc(/C=C/c2ccc(O)c(O)c2)c1 [PICEATANNOL] | -0.6 °C
COc1ccc2c(c[n+](C)c3c4cc5c(cc4ccc23)OCO5)c1OC [CHELERYTHRINE CHLORIDE] | -0.2 °C
N#CC(C#N)=Cc1ccc(O)c(O)c1 [TYRPHOSTIN 23] | 0.1 °C

target: cAMP-dependent protein kinase catalytic subunit alpha (Homo sapiens) (UniProt P17612)

SMILES | ΔTm
Oc1cc(O)cc(/C=C/c2ccc(O)c(O)c2)c1 [PICEATANNOL] | 2.7 °C
COc1ccc2c(c[n+](C)c3c4cc5c(cc4ccc23)OCO5)c1OC [CHELERYTHRINE CHLORIDE] | 1.4 °C
N#CC(C#N)=Cc1ccc(O)c(O)c1 [TYRPHOSTIN 23] | 0.6 °C

target: Serine/threonine-protein kinase 38 (Homo sapiens) (UniProt Q15208)
Sequence (Q15208 2-465 limits assumed): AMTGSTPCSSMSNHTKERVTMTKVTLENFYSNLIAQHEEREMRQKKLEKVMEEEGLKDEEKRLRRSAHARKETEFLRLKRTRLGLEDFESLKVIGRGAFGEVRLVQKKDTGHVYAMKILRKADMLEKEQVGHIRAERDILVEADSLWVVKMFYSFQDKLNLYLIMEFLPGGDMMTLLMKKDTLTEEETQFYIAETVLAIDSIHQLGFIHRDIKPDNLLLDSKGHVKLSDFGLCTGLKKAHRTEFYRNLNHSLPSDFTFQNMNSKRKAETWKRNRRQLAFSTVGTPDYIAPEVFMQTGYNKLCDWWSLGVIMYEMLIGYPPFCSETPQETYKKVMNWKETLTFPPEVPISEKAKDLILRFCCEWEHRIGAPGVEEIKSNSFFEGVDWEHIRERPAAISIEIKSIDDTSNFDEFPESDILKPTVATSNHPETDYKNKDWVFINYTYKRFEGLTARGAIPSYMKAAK

SMILES | ΔTm
Oc1cc(O)cc(/C=C/c2ccc(O)c(O)c2)c1 [PICEATANNOL] | 1.7 °C
COc1ccc2c(c[n+](C)c3c4cc5c(cc4ccc23)OCO5)c1OC [CHELERYTHRINE CHLORIDE] | 0.1 °C
N#CC(C#N)=Cc1ccc(O)c(O)c1 [TYRPHOSTIN 23] | 0.2 °C

target: Calcium/calmodulin-dependent protein kinase kinase 2 (Homo sapiens, UniProt Q96RR4)

SMILES | ΔTm
Oc1cc(O)cc(/C=C/c2ccc(O)c(O)c2)c1 [PICEATANNOL] | 0.5 °C
COc1ccc2c(c[n+](C)c3c4cc5c(cc4ccc23)OCO5)c1OC [CHELERYTHRINE CHLORIDE] | -1.6 °C
N#CC(C#N)=Cc1ccc(O)c(O)c1 [TYRPHOSTIN 23] | -0.7 °C

target: Serine/threonine-protein kinase 10 (Homo sapiens) (UniProt O94804)

SMILES | ΔTm
Oc1cc(O)cc(/C=C/c2ccc(O)c(O)c2)c1 [PICEATANNOL] | 0.6 °C
COc1ccc2c(c[n+](C)c3c4cc5c(cc4ccc23)OCO5)c1OC [CHELERYTHRINE CHLORIDE] | -1.1 °C
N#CC(C#N)=Cc1ccc(O)c(O)c1 [TYRPHOSTIN 23] | 0.5 °C

target: Serine/threonine-protein kinase PAK 6 (Homo sapiens) (UniProt Q9NQU5)
Sequence (Q9NQU5 whole entry, looked up): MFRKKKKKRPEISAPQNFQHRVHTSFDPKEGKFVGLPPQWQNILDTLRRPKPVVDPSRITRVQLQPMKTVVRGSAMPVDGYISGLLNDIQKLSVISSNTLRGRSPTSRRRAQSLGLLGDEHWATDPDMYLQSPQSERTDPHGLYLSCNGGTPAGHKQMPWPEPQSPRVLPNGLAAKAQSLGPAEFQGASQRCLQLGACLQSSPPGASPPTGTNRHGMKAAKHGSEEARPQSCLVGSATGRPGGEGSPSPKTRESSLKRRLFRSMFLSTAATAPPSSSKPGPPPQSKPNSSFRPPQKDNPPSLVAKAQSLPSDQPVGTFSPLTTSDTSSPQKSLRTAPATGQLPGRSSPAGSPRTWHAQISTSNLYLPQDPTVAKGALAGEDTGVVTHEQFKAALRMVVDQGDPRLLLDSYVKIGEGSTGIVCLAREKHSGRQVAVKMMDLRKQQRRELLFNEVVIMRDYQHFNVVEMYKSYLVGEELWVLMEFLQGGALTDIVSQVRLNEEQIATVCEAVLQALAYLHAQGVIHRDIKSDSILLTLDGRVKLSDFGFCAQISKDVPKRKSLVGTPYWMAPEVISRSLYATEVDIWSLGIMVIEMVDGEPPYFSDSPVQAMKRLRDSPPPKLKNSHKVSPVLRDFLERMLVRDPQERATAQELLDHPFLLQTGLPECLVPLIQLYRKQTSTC

SMILES | ΔTm
Oc1cc(O)cc(/C=C/c2ccc(O)c(O)c2)c1 [PICEATANNOL] | 0.5 °C
COc1ccc2c(c[n+](C)c3c4cc5c(cc4ccc23)OCO5)c1OC [CHELERYTHRINE CHLORIDE] | -3.3 °C
N#CC(C#N)=Cc1ccc(O)c(O)c1 [TYRPHOSTIN 23] | -0.2 °C

target: Casein kinase I isoform gamma-3 (Homo sapiens) (UniProt Q9Y6M4)
Sequence (Q9Y6M4 whole entry, looked up, canonical isoform): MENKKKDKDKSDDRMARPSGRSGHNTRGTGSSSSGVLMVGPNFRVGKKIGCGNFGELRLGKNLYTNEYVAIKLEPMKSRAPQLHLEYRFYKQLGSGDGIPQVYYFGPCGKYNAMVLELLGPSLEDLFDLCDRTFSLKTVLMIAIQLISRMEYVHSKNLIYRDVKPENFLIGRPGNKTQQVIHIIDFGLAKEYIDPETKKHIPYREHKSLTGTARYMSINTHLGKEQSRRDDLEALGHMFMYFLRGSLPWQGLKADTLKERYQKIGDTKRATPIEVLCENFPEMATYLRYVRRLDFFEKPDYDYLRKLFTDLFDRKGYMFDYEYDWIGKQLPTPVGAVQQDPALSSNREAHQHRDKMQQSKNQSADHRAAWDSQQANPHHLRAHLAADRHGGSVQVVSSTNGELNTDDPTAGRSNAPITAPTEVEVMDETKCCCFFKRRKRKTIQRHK

SMILES | ΔTm
Oc1cc(O)cc(/C=C/c2ccc(O)c(O)c2)c1 [PICEATANNOL] | 0.5 °C
COc1ccc2c(c[n+](C)c3c4cc5c(cc4ccc23)OCO5)c1OC [CHELERYTHRINE CHLORIDE] | 0.2 °C
N#CC(C#N)=Cc1ccc(O)c(O)c1 [TYRPHOSTIN 23] | 0.3 °C

target: Tyrosine-protein kinase JAK1 (Homo sapiens) (UniProt P23458)
Sequence (P23458 whole entry): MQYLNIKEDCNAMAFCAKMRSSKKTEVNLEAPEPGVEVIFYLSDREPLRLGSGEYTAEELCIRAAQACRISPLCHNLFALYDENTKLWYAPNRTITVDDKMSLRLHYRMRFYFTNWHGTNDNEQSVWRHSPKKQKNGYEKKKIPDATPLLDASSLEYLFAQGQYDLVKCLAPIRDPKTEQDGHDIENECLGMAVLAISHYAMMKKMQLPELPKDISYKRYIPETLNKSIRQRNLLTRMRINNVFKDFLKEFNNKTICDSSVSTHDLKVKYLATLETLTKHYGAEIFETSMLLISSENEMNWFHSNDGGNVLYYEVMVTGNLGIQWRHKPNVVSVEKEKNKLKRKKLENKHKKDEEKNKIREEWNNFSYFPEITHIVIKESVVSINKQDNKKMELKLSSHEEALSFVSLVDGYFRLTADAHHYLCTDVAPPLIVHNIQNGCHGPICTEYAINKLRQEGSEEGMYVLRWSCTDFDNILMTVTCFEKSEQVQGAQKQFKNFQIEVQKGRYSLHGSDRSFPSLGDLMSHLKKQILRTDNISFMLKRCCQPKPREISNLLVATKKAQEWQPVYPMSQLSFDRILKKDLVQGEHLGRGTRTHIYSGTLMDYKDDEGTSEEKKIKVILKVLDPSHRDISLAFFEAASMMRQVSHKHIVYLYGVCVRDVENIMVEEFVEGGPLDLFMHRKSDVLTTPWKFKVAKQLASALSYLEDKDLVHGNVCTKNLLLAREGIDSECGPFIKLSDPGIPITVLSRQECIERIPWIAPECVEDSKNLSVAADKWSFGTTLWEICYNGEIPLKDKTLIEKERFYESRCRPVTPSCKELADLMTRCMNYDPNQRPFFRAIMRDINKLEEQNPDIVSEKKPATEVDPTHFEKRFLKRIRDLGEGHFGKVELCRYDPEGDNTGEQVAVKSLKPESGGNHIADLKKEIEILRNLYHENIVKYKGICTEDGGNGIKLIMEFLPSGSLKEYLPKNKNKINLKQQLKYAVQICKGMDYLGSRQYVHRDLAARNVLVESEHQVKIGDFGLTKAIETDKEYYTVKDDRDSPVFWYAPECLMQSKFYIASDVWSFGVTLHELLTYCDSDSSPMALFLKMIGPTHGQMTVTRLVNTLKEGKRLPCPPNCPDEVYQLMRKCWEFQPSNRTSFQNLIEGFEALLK

SMILES | ΔTm
Oc1cc(O)cc(/C=C/c2ccc(O)c(O)c2)c1 [PICEATANNOL] | 2 °C
COc1ccc2c(c[n+](C)c3c4cc5c(cc4ccc23)OCO5)c1OC [CHELERYTHRINE CHLORIDE] | 0.3 °C
N#CC(C#N)=Cc1ccc(O)c(O)c1 [TYRPHOSTIN 23] | 0.1 °C

target: T2, Serine/threonine-protein kinase VRK3 (Homo sapiens) (UniProt Q8IV63)
T2 sequence (whole entry): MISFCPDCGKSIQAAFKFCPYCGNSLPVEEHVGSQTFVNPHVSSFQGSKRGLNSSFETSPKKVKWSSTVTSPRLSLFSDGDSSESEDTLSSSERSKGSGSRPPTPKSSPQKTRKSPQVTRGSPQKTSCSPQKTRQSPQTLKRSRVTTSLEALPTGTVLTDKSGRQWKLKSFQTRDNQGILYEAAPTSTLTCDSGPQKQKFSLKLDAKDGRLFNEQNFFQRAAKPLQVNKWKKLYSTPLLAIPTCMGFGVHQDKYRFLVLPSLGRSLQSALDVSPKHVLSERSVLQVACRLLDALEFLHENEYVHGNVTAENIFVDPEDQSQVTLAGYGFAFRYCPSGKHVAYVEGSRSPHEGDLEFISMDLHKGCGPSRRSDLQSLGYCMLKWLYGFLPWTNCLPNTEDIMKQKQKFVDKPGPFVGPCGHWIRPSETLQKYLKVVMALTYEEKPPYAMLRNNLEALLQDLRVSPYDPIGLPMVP

SMILES | ΔTm
Oc1cc(O)cc(/C=C/c2ccc(O)c(O)c2)c1 [PICEATANNOL] | -0.2 °C
COc1ccc2c(c[n+](C)c3c4cc5c(cc4ccc23)OCO5)c1OC [CHELERYTHRINE CHLORIDE] | -0.6 °C
N#CC(C#N)=Cc1ccc(O)c(O)c1 [TYRPHOSTIN 23] | -0.2 °C

target: 5'-AMP-activated protein kinase catalytic subunit alpha-2 (Homo sapiens) (UniProt P54646)
Sequence (P54646 whole entry, looked up): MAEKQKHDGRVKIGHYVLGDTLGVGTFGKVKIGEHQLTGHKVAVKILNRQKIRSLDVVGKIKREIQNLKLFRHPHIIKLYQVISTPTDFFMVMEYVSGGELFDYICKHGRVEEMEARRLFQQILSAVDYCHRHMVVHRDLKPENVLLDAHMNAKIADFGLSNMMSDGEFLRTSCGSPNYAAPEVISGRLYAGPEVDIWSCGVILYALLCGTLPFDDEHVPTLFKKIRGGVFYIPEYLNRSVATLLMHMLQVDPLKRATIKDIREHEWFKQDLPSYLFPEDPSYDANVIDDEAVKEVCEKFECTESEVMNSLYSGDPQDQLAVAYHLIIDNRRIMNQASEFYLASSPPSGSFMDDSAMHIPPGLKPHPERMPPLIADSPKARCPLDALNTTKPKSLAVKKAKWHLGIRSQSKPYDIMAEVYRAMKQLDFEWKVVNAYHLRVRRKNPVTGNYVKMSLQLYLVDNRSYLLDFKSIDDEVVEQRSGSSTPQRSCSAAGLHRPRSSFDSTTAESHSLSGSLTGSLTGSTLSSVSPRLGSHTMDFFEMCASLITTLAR

SMILES | ΔTm
Oc1cc(O)cc(/C=C/c2ccc(O)c(O)c2)c1 [PICEATANNOL] | 0.2 °C
COc1ccc2c(c[n+](C)c3c4cc5c(cc4ccc23)OCO5)c1OC [CHELERYTHRINE CHLORIDE] | -1.3 °C
N#CC(C#N)=Cc1ccc(O)c(O)c1 [TYRPHOSTIN 23] | -0.1 °C

target: T3, Serine/threonine-protein kinase 17A (Homo sapiens) (UniProt Q9UEE5)
T3 sequence (whole entry): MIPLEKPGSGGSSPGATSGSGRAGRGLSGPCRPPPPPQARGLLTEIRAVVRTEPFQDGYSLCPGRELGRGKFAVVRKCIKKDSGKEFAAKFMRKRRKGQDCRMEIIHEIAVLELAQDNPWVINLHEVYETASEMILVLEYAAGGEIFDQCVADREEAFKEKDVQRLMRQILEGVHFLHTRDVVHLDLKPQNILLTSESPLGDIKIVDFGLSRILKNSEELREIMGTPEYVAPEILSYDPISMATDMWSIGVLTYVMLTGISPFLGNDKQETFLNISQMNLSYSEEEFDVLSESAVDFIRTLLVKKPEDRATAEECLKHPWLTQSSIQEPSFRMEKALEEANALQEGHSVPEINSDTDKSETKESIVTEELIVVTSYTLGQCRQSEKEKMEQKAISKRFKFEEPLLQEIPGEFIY

SMILES | ΔTm
Oc1cc(O)cc(/C=C/c2ccc(O)c(O)c2)c1 [PICEATANNOL] | 0.3 °C
COc1ccc2c(c[n+](C)c3c4cc5c(cc4ccc23)OCO5)c1OC [CHELERYTHRINE CHLORIDE] | -0.8 °C
N#CC(C#N)=Cc1ccc(O)c(O)c1 [TYRPHOSTIN 23] | 0.9 °C

target: Serine/threonine-protein kinase pim-2 (Homo sapiens, UniProt Q9P1W9)
Sequence (Q9P1W9 whole entry, looked up): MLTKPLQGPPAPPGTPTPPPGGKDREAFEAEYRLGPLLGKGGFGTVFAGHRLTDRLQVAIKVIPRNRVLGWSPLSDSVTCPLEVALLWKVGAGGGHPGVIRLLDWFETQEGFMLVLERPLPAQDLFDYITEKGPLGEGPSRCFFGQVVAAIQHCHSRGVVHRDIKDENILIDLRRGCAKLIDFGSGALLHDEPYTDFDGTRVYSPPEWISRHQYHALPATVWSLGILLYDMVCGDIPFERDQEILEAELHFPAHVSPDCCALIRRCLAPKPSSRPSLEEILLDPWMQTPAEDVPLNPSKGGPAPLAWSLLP

SMILES | ΔTm
Oc1cc(O)cc(/C=C/c2ccc(O)c(O)c2)c1 [PICEATANNOL] | 2 °C
COc1ccc2c(c[n+](C)c3c4cc5c(cc4ccc23)OCO5)c1OC [CHELERYTHRINE CHLORIDE] | -3.1 °C
N#CC(C#N)=Cc1ccc(O)c(O)c1 [TYRPHOSTIN 23] | 1 °C

target: Cyclin-dependent kinase 16 (Homo sapiens) (UniProt Q00536)
Sequence (Q00536 whole entry): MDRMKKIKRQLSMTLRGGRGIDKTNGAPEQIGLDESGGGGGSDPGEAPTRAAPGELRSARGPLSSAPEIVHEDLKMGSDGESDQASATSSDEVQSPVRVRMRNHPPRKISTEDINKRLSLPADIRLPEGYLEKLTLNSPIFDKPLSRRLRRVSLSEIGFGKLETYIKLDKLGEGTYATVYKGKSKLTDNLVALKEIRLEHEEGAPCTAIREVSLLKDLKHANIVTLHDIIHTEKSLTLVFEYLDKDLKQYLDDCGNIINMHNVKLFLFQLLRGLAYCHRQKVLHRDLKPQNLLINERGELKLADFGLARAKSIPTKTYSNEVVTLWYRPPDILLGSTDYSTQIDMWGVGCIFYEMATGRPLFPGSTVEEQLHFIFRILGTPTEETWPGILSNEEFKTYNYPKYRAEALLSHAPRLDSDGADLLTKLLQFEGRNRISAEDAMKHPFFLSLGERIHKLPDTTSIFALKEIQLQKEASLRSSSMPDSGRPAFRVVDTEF

SMILES | ΔTm
Oc1cc(O)cc(/C=C/c2ccc(O)c(O)c2)c1 [PICEATANNOL] | 0 °C
COc1ccc2c(c[n+](C)c3c4cc5c(cc4ccc23)OCO5)c1OC [CHELERYTHRINE CHLORIDE] | -0.2 °C
N#CC(C#N)=Cc1ccc(O)c(O)c1 [TYRPHOSTIN 23] | -0.7 °C

target: Serine/threonine-protein kinase Nek6 (Homo sapiens) (UniProt Q9HC98)
Sequence (Q9HC98 whole entry): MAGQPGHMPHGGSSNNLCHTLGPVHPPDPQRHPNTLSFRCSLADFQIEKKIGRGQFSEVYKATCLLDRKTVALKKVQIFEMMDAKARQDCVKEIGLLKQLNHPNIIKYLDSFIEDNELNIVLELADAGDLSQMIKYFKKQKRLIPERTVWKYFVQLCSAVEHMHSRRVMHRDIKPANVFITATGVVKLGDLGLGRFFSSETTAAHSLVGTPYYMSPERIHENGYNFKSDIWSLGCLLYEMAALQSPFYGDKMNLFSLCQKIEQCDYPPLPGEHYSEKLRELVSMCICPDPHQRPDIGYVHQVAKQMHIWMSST

SMILES | ΔTm
Oc1cc(O)cc(/C=C/c2ccc(O)c(O)c2)c1 [PICEATANNOL] | 0.6 °C
COc1ccc2c(c[n+](C)c3c4cc5c(cc4ccc23)OCO5)c1OC [CHELERYTHRINE CHLORIDE] | -2.5 °C
N#CC(C#N)=Cc1ccc(O)c(O)c1 [TYRPHOSTIN 23] | 0.6 °C

Source: ChEMBL document CHEMBL1145498, “A systematic interaction map of validated kinase inhibitors with Ser/Thr kinases” (Proc Natl Acad Sci U S A, 2007)
